# Like-named read-outs stand apart in the source and are kept apart here.
# How the values were obtained:
# [1] = tested on: Escherichia coli EC14; experiment: MIC, standard agar-dilution assay (Table V); assay type: cell-based; details: E. coli EC14, agar dilution
# Method: (§1) Especially noteworthy is the improved activity against gram-negative bacteria for several derivatives when compared to the activity of OMT. […] The MIC's in Tables V and VI were determined by standard agar-dilution assays. The MIC's in Table VII were obtained using a conventional broth-dilution microtiter test.
# [2] = tested on: Escherichia coli N10; experiment: MIC, standard agar-dilution assay (Table V); assay type: cell-based; details: E. coli N10, agar dilution
# Method: as §1
# [3] = tested on: Klebsiella pneumoniae KAE; experiment: MIC, standard agar-dilution assay (Table V); assay type: cell-based; details: K. pneumoniae KAE, agar dilution
# Method: as §1
# [4] = tested on: Klebsiella pneumoniae X26; experiment: MIC, standard agar-dilution assay (Table V); assay type: cell-based; details: K. pneumoniae X26, agar dilution
# Method: as §1
# [5] = tested on: Shigella sonnei N9; experiment: MIC, standard agar-dilution assay (Table V); assay type: cell-based
# Method: as §1
# [6] = tested on: Staphylococcus aureus S13E; experiment: MIC, standard agar-dilution assay (Table V); assay type: cell-based
# Method: as §1
# [7] = tested on: Staphylococcus aureus V41; experiment: MIC, standard agar-dilution assay (Table V); assay type: cell-based
# Method: as §1
# [8] = tested on: Staphylococcus aureus X1.1; experiment: MIC, standard agar-dilution assay (Table V); assay type: cell-based
# Method: as §1
# [9] = tested on: Staphylococcus aureus X400; experiment: MIC, standard agar-dilution assay (Table V); assay type: cell-based
# Method: as §1
# [10] = tested on: Staphylococcus epidermidis EPI1; experiment: MIC, standard agar-dilution assay (Table V); assay type: cell-based
# Method: as §1
# [11] = tested on: Staphylococcus epidermidis EPI2; experiment: MIC, standard agar-dilution assay (Table V); assay type: cell-based
# Method: as §1
# [12] = tested on: Streptococcus Group 9960; experiment: MIC, standard agar-dilution assay (Table V); assay type: cell-based
# Method: as §1
# [13] = tested on: Streptococcus Group D X66; experiment: MIC, standard agar-dilution assay (Table V); assay type: cell-based
# Method: as §1
# [14] = tested on: Escherichia coli TEM; experiment: MIC, standard agar-dilution assay (Table V); assay type: cell-based; details: E. coli TEM, agar dilution
# Method: (§2) The MIC's in Tables V and VI were determined by standard agar-dilution assays. The MIC's in Table VII were obtained using a conventional broth-dilution microtiter test.
# [15] = tested on: Haemophilus influenzae Holt; experiment: MIC, standard agar-dilution assay (Table V); assay type: cell-based
# Method: as §2
# [16] = tested on: Haemophilus influenzae R252; experiment: MIC, standard agar-dilution assay (Table V); assay type: cell-based
# Method: as §2
# [17] = tested on: Streptococcus pyogenes C203; experiment: MIC, standard agar-dilution assay (Table V); assay type: cell-based
# Method: as §2
# [18] = tested on: Streptococcus pneumoniae Park I; experiment: microbe, parasite or virus in culture; assay type: cell-based
# Method: as §1
# [19] = tested on: Mycoplasma gallisepticum; experiment: MIC, broth-dilution microtiter test (Table VII); assay type: cell-based
# Method: as §1
# [20] = tested on: Mycoplasma hyorhinis; experiment: MIC, broth-dilution microtiter test (Table VII); assay type: cell-based; details: M. hyorhinis, broth-dilution microtiter
# Method: as §1
# [21] = tested on: Mycoplasma synoviae; experiment: MIC, broth-dilution microtiter test (Table VII); assay type: cell-based
# Method: as §1
# [22] = tested on: Pasteurella hemolytica 22C; experiment: MIC, broth-dilution microtiter test (Table VII); assay type: cell-based; details: P. hemolytica 22C
# Method: as §1
# [23] = tested on: Pasteurella hemolytica 23C; experiment: MIC, broth-dilution microtiter test (Table VII); assay type: cell-based; details: P. hemolytica 23C
# Method: as §1
# [24] = tested on: Pasteurella hemolytica 41D; experiment: MIC, broth-dilution microtiter test (Table VII); assay type: cell-based; details: P. hemolytica 41D
# Method: as §1
# [25] = tested on: Pasteurella multocida 17E; experiment: MIC, broth-dilution microtiter test (Table VII); assay type: cell-based
# Method: as §1
# [26] = tested on: Pasteurella multocida 22A; experiment: MIC, broth-dilution microtiter test (Table VII); assay type: cell-based
# Method: as §1
# [27] = tested on: Pasteurella multocida 40G; experiment: MIC, broth-dilution microtiter test (Table VII); assay type: cell-based
# Method: as §1
# [28] = tested on: Pasteurella multocida 60A; experiment: MIC, broth-dilution microtiter test (Table VII); assay type: cell-based
# Method: as §1
# [29] = tested on: Pasteurella multocida 68C; experiment: MIC, broth-dilution microtiter test (Table VII); assay type: cell-based; details: P. multocida 68C, broth-dilution microtiter
# Method: as §1
# [30] = tested on: Staphylococcus aureus; experiment: MIC, broth-dilution microtiter test (Table VII); assay type: cell-based
# Method: as §1
# [31] = tested on: Streptococcus sp. 80; experiment: MIC, broth-dilution microtiter test (Table VII); assay type: cell-based
# Method: as §1
# [32] = tested on: Pasteurella multocida; experiment: Protection of one-day-old chicks against Pasteurella multocida infection (Table IX); assay type: in vivo; details: subcutaneous 30 mg/kg × 2, 1 and 4 hours post-challenge
# Method: The C-23 modified derivatives of OMT have also shown in vivo antibacterial activity against infections induced by gram-negative bacteria. Table IX summarizes the results of tests in which illustrative compounds were evaluated against Pasteurella infections in one-day-old chicks. The compounds were administered by subcutaneous injection at a dosage of 30 mg/kg, 1 and 4 hours post-challenge of the chicks with Pasteurella multocida (0.1 ml of a twenty-hour tryptose broth culture of an avian P. multocida given subcutaneously). In the tests, all ten non-medicated infected chicks died within 24 hours of Pasteurella challenge.
# [33] = Escherichia coli, read-out: MIC
# [34] = Klebsiella pneumoniae, read-out: MIC
structure (smiles),measurement,setting,value
CCC1OC(=O)CC(O)C(C)C(OC2OC(C)C(O)C(N(C)C)C2O)C(CC=O)CC(C)C(=O)C=CC(C)(OCCc2ccccc2)C2CC12 (centres unmarked) [Compound 18],MIC,[1]; [33],> 128 µg/mL
same,MIC,[2]; [33],> 128 µg/mL
same,MIC,[3]; [34],> 128 µg/mL
same,MIC,[4]; [34],16 µg/mL
same,MIC,[5],> 128 µg/mL
same,MIC,"[6]; Staphylococcus aureus, S13E",1 µg/mL
same,MIC,"[7]; Staphylococcus aureus, V41",2 µg/mL
same,MIC,"[8]; Staphylococcus aureus, X1.1",1 µg/mL
same,MIC,"[9]; Staphylococcus aureus, X400",2 µg/mL
same,MIC,"[10]; Staphylococcus epidermidis, EPI1",1 µg/mL
same,MIC,"[11]; Staphylococcus epidermidis, EPI2",2 µg/mL
same,MIC,[12]; GROUP9960,2 µg/mL
same,MIC,[13],1 µg/mL
same,MIC,[14]; [33],64 µg/mL
same,MIC,[15]; Haemophilus influenzae,8 µg/mL
same,MIC,"[16]; Haemophilus influenzae, R252",8 µg/mL
same,MIC,"[17]; Streptococcus pyogenes, C203",1 µg/mL
same,MIC,[18]; Streptococcus pneumoniae,0.25 µg/mL
same,MIC,[19]; Mycoplasmoides gallisepticum,1.56 µg/mL
same,MIC,[20]; read-out: MIC,25 µg/mL
same,MIC,[21]; Mycoplasmopsis synoviae,3.12 µg/mL
same,MIC,"[22]; Pasteurella, read-out: MIC",25 µg/mL
same,MIC,"[23]; Pasteurella, read-out: MIC",25 µg/mL
same,MIC,"[24]; Pasteurella, read-out: MIC",25 µg/mL
same,MIC,"[25]; Pasteurella multocida, 17E",12.5 µg/mL
same,MIC,"[26]; Pasteurella multocida, 22A",12.5 µg/mL
same,MIC,"[27]; Pasteurella multocida, 40G",12.5 µg/mL
same,MIC,"[28]; Pasteurella multocida, 60A",12.5 µg/mL
same,MIC,"[29]; Pasteurella multocida, read-out: MIC",25 µg/mL
same,MIC,[30]; Staphylococcus aureus,6.25 µg/mL
same,MIC,"[31]; Streptococcus, SP.80",1.56 µg/mL
CCC1OC(=O)CC(O)C(C)C(OC2OC(C)C(O)C(N(C)C)C2O)C(CC=O)CC(C)C(=O)C=CC(C)=CC1CNC(=O)CNC(=O)C(C)N (centres unmarked) [Compound 14],MIC,[1],-- (MIC ≥ 128)
same,MIC,[2],-- (MIC ≥ 128)
same,MIC,[3],-- (MIC ≥ 128)
same,MIC,[4],-- (MIC ≥ 128)
same,MIC,"[6]; S. aureus S13E, agar dilution",64 µg/mL
same,MIC,"[7]; S. aureus V41, penicillin-resistant strain, agar dilution",64 µg/mL
same,MIC,"[8]; S. aureus X1.1, agar dilution",64 µg/mL
same,MIC,"[9]; S. aureus X400, methicillin-resistant strain, agar dilution",128 µg/mL
same,MIC,"[10]; S. epidermidis EPI1, agar dilution",64 µg/mL
same,MIC,"[11]; S. epidermidis EPI2, agar dilution",64 µg/mL
same,MIC,"[12]; Streptococcus Group 9960, agar dilution",64 µg/mL
same,MIC,"[13]; Streptococcus Group D X66, agar dilution",64 µg/mL
same,MIC,[14],-- (MIC ≥ 128)
same,MIC,"[15]; H. influenzae Holt, ampicillin-sensitive strain, agar dilution",-- (MIC ≥ 128)
same,MIC,"[16]; H. influenzae R252, ampicillin-resistant strain, agar dilution",-- (MIC ≥ 128)
same,MIC,"[17]; S. pyogenes C203, agar dilution",16 µg/mL
same,MIC,"[18]; S. pneumoniae Park I, agar dilution",16 µg/mL
same,MIC,"[19]; M. gallisepticum, broth-dilution microtiter",12.5 µg/mL
same,MIC,[20],50 µg/mL
same,MIC,"[21]; M. synoviae, broth-dilution microtiter",6.25 µg/mL
same,MIC,[22],> 50 µg/mL
same,MIC,[23],> 50 µg/mL
same,MIC,[24],> 50 µg/mL
same,MIC,"[25]; P. multocida 17E, bovine isolate, broth-dilution microtiter",> 50 µg/mL
same,MIC,"[26]; P. multocida 22A, broth-dilution microtiter",> 50 µg/mL
same,MIC,"[27]; P. multocida 40G, broth-dilution microtiter",> 50 µg/mL
same,MIC,"[28]; P. multocida 60A, avian isolate, broth-dilution microtiter",> 50 µg/mL
same,MIC,[29],> 50 µg/mL
same,MIC,"[30]; S. aureus, broth-dilution microtiter",> 50 µg/mL
same,MIC,"[31]; Streptococcus sp. 80, broth-dilution microtiter",25 µg/mL
same,Number of deaths/number treated,[32],10/10
